Data as given in patent US20100021555A1, “Compositions containing high omega-3 and low saturated fatty acid levels” (priority 2004, published 2010).

Legend:
lactating dairy cows = assay: Pilot supplementation study in lactating dairy cows: milk fatty acids by GC; type: in vivo, Friesian dairy cows
From the text: (§1) Ethical approval was obtained from the University of Auckland Animal Ethics Committee to undertake an pilot supplementation study. The study involved supplementing the diets of four Friesian dairy cows with single daily dose of 40 and 160 of ethyl-eicospaentaenoic acid (>98% purity) for nine days. Cows were divided into a high-to-low dose (HTLD) group (n=2) with animals supplemented with 160 grams of EPA at day one with the dose decreasing by 15 grams each day to reach 40 grams at day nine and a low-to-high dose (LTHD) group (n=2) with animals supplemented with 40 grams on day one the dose increasing by 15 grams each day to reach 160 grams at day nine. Feeding and milk sampling was undertaken between 19 and 29 August 2004 at a dairy farm in West Aucldand under the supervision of a supervising veterinarian with experience in caring for the herd. Supplements were given by drenching gun once daily in the morning subsequent to milking. Prior to supplementation each day duplicate 50 ml samples of milk were collected from each animal and stored in 100 ml polyethylene containers in a temperature controlled minus 20 deg C. freezer within one hour of collection. Milk samples were thawed and fatty acids extracted and prepared for analysis. Milkfat was methylated by dissolving in hexane and reaction with 2 molar KOH methanol. 20 milligrams of fat dissolved in 2 mls in N-Hexane then 20 micro-litres of 2 molar KOH methanol was added left to stand for 3 seconds and vortexed vigorously for 30 seconds. The mixture was then allowed to stand for 6 minutes before being neutralized to methyl red with 2 molar HCl in water before being vortexed again and centrifuged (modified method from agilent website also reported in Terry Knight publications) Knight T. W., et al., New Zealand Journal Of Agricultural Research 47:3,: 287-297 SEP (2004). An aliquot of hexane was then taken and analysed by GCFID 6890 (Agilent Corp) with 105 meter 0.25 mm RTX2330 90% bis cyanoprofile column (Restek) and 0.25 micron film thickness. Fatty acids were identified by retention time in comparison with a 37-component mixture (Suplco). Peak areas were corrected for peak response using theoretical response factors (AOCS reference). Results were reported as area under curve.
A permutation based method of statistical analysis was used to assess FA baseline composition with reference to a reference baseline derived from population of four thousand one hundred NZ Fresian dairy cows. Each fatty acid peak measured in the feeding trial was logged (log base 2), and had the day 0 (baseline) measurement subtracted to report a change from baseline at each time point. Significance of the changes in four-cow and two-cow means was tested by randomly selecting many groups of two or four cows from the herd of 4100 animal reference dataset and comparing the feeding trial results against the mean of logged measurements from the larger reference population. This produced baseline distributions for each group size which were centered at zero to match the baseline centered means from the animals in the feeding trial. Significance thresholds were then adjusted for the number of fatty acid peaks being investigated, and the number of measurements taken.

delta-9-desaturase = assay: Milkfat substrate/product ratios (SFA : monounsaturated counterpart), proxy for delta-9-desaturase activity; type: in vivo, Friesian dairy cows; conditions: for C:18:C18:1 ratio in milkfat: baseline 0.49; for C:10:C10:1 ratio in milkfat: baseline 12.66; for C:14:C14:1 ratio in milkfat: baseline 14.93; for C:16:C16:1 ratio in milkfat: baseline 17.40
From the text: as §1
Saturated Fatty Acids: A reduction in dietary amounts of certain saturated fatty acids (SFAs), including in particular the major milk fatty acid C16:0, a has been recommended by health experts (WHO Technical Report Series 916, WHO Geneva (2003)). Under normal circumstances about 50% of dietary C16:0 is taken up by the mammary gland. […] This decrease in milkfat C16:0 is unlikely to be explained by altered feeding behavior during the study given corresponding changes were not observed in other SFAs. In order to investigate the contribution of further metabolism of C16:0 in the mammary gland to palmitoleic acid (C16:1) we compared substrate/product ratios in milkfat for a number of SFAs and their monounsaturated fatty acid counterparts. These ratios are considered to be a proxy measure for the activity of the delta-9-desaturase activity enzyme. (see Table 1 below).

dairy cows = conditions: cited from earlier work
rumen microorganisms = conditions: in vitro; cited from earlier work
bovine hepatocytes = bovine hepatocytes supplemented in vitro; cited from earlier work

## CC/C=C\C/C=C\C/C=C\C/C=C\C/C=C\CCCC(=O)OCC [ethyl-eicospaentaenoic acid]
Lactating dairy cows; HTLD group
  day by which milk DPA rose significantly from baseline: three
  day by which milk EPA rose significantly from baseline: two
Lactating dairy cows; HTLD group (160 to 40 g/day), peak at day five
  EPA as a percentage of total fatty acids in milk, peak: 1.55 % TFA
Lactating dairy cows; HTLD group, peak at day six
  DPA as a percentage of total fatty acids in milk, peak: 0.41 % TFA
Lactating dairy cows; LTHD group
  day by which milk DPA rose significantly from baseline: seven
  day by which milk EPA rose significantly from baseline: five
Lactating dairy cows; LTHD group (40 to 160 g/day), peak at day nine
  EPA as a percentage of total fatty acids in milk, peak: 1.29 % TFA
Lactating dairy cows; LTHD group, peak at day eleven
  DPA as a percentage of total fatty acids in milk, peak: 0.38 % TFA
Lactating dairy cows; already significant by day three
  milkfat stearic acid (C18:0): dramatic reduction
Lactating dairy cows; day nine, across both groups
  maximum reduction of % TFA C16:0 in milk: 15.44 % of baseline levels
Lactating dairy cows; day nine, across both groups, baseline 36.78
  % TFA C16:0 in milk: 31.1 % TFA
Lactating dairy cows; in vivo
  CLA in milk, increase over baseline levels at maximum: 375%
  CLA in milk, maximum level: 4.2 % of total fatty acids
Lactating dairy cows; mean
  CLA in milk, mean increase over baseline levels: 274%
Lactating dairy cows; undetectable at baseline, throughout the study
  DHA in milk: remained unchanged
delta-9-desaturase; Day Eleven
  C:10:C10:1 ratio, % of baseline: 106.4 % of baseline
  C:14:C14:1 ratio, % of baseline: 110.6 % of baseline
  C:16:C16:1 ratio, % of baseline: 113.4 % of baseline
  C:18:C18:1 ratio, % of baseline: 98 % of baseline
  C:18:C18:1 ratio in milkfat: 0.48
  C:10:C10:1 ratio in milkfat: 13.46
  C:14:C14:1 ratio in milkfat: 16.51
  C:16:C16:1 ratio in milkfat: 19.67
delta-9-desaturase; Day Five
  C:10:C10:1 ratio, % of baseline: 82.5 % of baseline
  C:14:C14:1 ratio, % of baseline: 83.3 % of baseline
  C:16:C16:1 ratio, % of baseline: 90.6 % of baseline
  C:18:C18:1 ratio, % of baseline: 65.3 % of baseline
  C:18:C18:1 ratio in milkfat: 0.32
  C:14:C14:1 ratio in milkfat: 12.44
  C:16:C16:1 ratio in milkfat: 15.76
delta-9-desaturase; Day Five, across both groups
  C:10:C10:1 ratio in milkfat: 10.45

## CC/C=C\C/C=C\C/C=C\CCCCCCCC(=O)O [ALA, alpha linolenic acid]
Dairy cows; duodenal infusion of 500 grams per day of ALA
  EPA in milkfat: no concomitant increase
Dairy cows; duodenal infusion of 500 grams per day
  level of ALA in milkfat: 14%

## CC/C=C\C/C=C\C/C=C\C/C=C\C/C=C\CCCC(=O)O [EPA, 5,8,11,14,17,-eicosapentaenoic acid (20:5n-3)]
Rumen microorganisms
  biohydrogenation of linoleic (LA C18:2) and alpha-linolenic (ALA C18:3) acid: inhibition
Bovine hepatocytes
  oxidation of C16:0: significant increase
